In BindingDB's records for doi:10.1021/jm00153a007 (1986):

Target: Prostacyclin synthase (Sus scrofa)
Experiment: Inhibition of PGI-2 synthetase from porcine aorta

IC50, > 100 µM:
O=C(O)CCn1cc(Cn2ccnc2)c2ccc(C(F)(F)F)cc21 [3-(3-Imidazol-1-ylmethyl-6-trifluoromethyl-indol-1-yl)-propionic acid], Cc1c(Cn2ccnc2)c2ccccc2n1/C=C/C(=O)O [3-(3-Imidazol-1-ylmethyl-2-methyl-indol-1-yl)-acrylic acid], O=C(O)CCn1cc(Cn2ccnc2)c2cc(Br)ccc21 [3-(5-Bromo-3-imidazol-1-ylmethyl-indol-1-yl)-propionic acid], CN(C)c1ccc2c(c1)c(Cn1ccnc1)cn2CCC(=O)O [3-(5-Dimethylamino-3-imidazol-1-ylmethyl-indol-1-yl)-propionic acid], CC(C)c1c(Cn2ccnc2)c2ccccc2n1CCC(=O)O [3-(3-Imidazol-1-ylmethyl-2-isopropyl-indol-1-yl)-propionic acid], O=C(O)CCn1cc(Cn2ccnc2)c2cc(Cl)ccc21 [3-(5-Chloro-3-imidazol-1-ylmethyl-indol-1-yl)-propionic acid]
